Measurements from patent publication US10688032B2, “Emulsions having UV sunscreen factors and carnosines” (Symrise AG, priority 2015, dated 2020).

Assays:
[1] = system: glucose-6-phosphate dehydrogenase (G6PDH); experiment: G6PDH activity on human fibroblasts (enzymatic method of Okada); assay type: cell-based; settings: for G6PDH after 3 d / G6PDH after 6 d: conc. 0.001 % w/v, compared to blank sample = 100
From the text: The enzyme glucose-6-phosphate dehydrogenase (G6PDH) catalyzes the first step of the so-called “pentose pathway”, in which an important DNA component, namely deoxyribose, is formed. Glucose 6-phosphate (G6P) is thereby converted into 6-phosphogluconate (6PG) by means of G6PDH. At the same time, the coenzyme NADP required thereby is reduced to NADPH2, which in turn is able to catalyze a large number of other biological reactions such as, for example, the recycling of glutathione or lipid synthesis. Reduced glutathione protects many enzymes which have SH groups and cells against oxidative stress, such as, for example, the action of UV. The G6PDH content is thus an important parameter for cell protection and skin renewal. G6PDH activity was determined in vitro on human fibroblasts by the enzymatic method of Okada, while the DNA content was determined by the Desaulniers method. The results of 3 series of measurements with triple determination are given in %-rel. compared to a blank sample.

[2] = system: human fibroblasts and human keratinocytes; experiment: Inhibition of apoptosis induced by a deficiency of growth factors (cell count, BrdU ELISA of cytoplasmic DNA fragments); assay type: cell-based; settings: for Content of DNA fragments / Cell count: conc. 0.001 % w/v; for Content of DNA fragments: BrdU in cytoplasmic DNA fragments, based on a million cells, control = 100; for Cell count: medium without fetal calf serum, in comparison to the control = 100
Procedure: The ability of carnosines to prevent apoptosis induced by a deficiency of growth factors in human skin cells was studied. These tests were carried out in vitro on human fibroblasts and human keratinocytes. The human cells were cultivated in a nutrient medium (DMEM=Dulbecco minimum essential medium from Life Technologie Sarl) with 10% fetal calf serum (from Dutcher). Bromodeoxyuridine (BrdU) was added to the nutrient medium; it was incorporated into the DNA and later served for detection of the DNA fragments in the cytoplasm. After an incubation period of two days, the nutrient medium was replaced by nutrient medium (DMEM) without fetal calf serum. The active substance to be tested was added. For comparison, a cell sample without active substance to be tested was incubated.
After a further incubation period of one or two days at 37° C., the cells were recovered by trypsinization according to the method of Dunnebacke and Zitcer described in: Cell and tissue culture, Ed.: J. Paul, Churchill Livingstone, 1975, p. 226. After the trypsinization, the cells were centrifuged and counted. Then the content of BrdU in the DNA fragments from the cytoplasm was determined by means of the ELISA test (ELISA kit from Roche). The content of BrdU is a measure of the DNA fragments which have passed from the nucleus, the cell core, into the cytoplasm. The results were based on a million cells and given in percent in comparison to the control.

[3] = system: human fibroblasts; experiment: Stimulation of the synthesis of dermal macromolecules (GAG) in collagen gel containing human fibroblasts; assay type: cell-based; settings: 0.5% by weight FCS + 0.01% by weight substance; for Area 7 days / Area 14 days / Density 14 days: collagen gel; for Density 14 days: relative density 0=clear or white, 1=black; for GAG content 7 days / GAG content 14 days: relative value of the gray stage (0=white to 255=black), perifibroblast area
Procedure: The measuring method is based on staining macromolecules in a culture of human fibroblasts which, with type I collagen, forms a collagen gel or collagen lattice fibers. Certain regions of those fibers are quantified by means of staining reagents for the proportion of the mentioned macromolecules.
For that purpose, a suspension of human fibroblasts was mixed with a solution of type I collagen (1-2 mg/ml). This mixture was incubated in a defined nutrient medium (DMEM=Dulbecco minimum essential medium, Life Technologie Sarl) comprising 0.5 or 2% by weight fetal calf serum (FCS) for 14 days at 37° C. in a 5% CO2 atmosphere in Petri dishes (5 ml per dish) with the addition of different concentrations of the plant extracts to be tested.
The kinetics of the collagen gel […] was determined 2 to 3 times per week by measuring two perpendicular diameters on each collagen gel using a microscope with an image analysis system. The size of the area is shown in cm^2 in Table 8. After incubation for 14 days, the density of the collagen gel was determined by image analysis with a light source of visible light, by comparatively analyzing different gray stages. This is a relative determination of the density (0=clear or white and 1=black), which cannot be given a unit.
After an incubation period of 7 and 14 days, biopsies (tissue samples) were taken and histological sections of the collagen gel containing human fibroblasts were obtained. The synthesis of macromolecules was analyzed and quantified by the staining of glycosaminoglycan with PAS Alcian blue, for example from SIGMA, by the periodic acid-Schiff method (PAS) described in: Mowry R W, Anal. NY Adad. Sci. 106 Art 2, 402, 1963. The stimulation of the synthesis of macromolecules was evaluated in the immediate vicinity of fibroblasts. This zone is also referred to as the “perifibroblast area”.
The “perifibroblast” secretion, or the secretion of fibroblasts into the periphery, was quantified by an image analyzer by means of a microscope. Reactive structures in the “perifibroblast area” were detected, and the different gray stages were comparatively determined. The values of the gray stages were thereby subdivided from 0=white to 255=black. These parameters are directly proportional to the intensity of the synthesis of macromolecules and thus to the GAG content of the fibroblasts.
The results of the values of these parameters are shown in Table 3 below and are to be regarded directly as representative values for the synthesis activity of the fibroblasts. The content of GAGs is described as a relative value of the gray stage.

[4] = system: type I collagen; experiment: Inhibition of the glycation of collagen (Schiff's bases, fluorescence at 430 nm); assay type: biochemical; settings: with glucose, 21 days at 45° C.; control with glucose 100, control without glucose 46
Procedure: The suspensions were then centrifuged and the content of Schiff's bases in the supernatant liquid was determined by fluorescence measurement at 430 nm. The results are again based on the control as standards (without extract and without glucose).

[5] = system: human fibroblasts; experiment: DNA content of human fibroblasts (Desaulniers method); assay type: cell-based; settings: conc. 0.001 % w/v, compared to blank sample = 100
Procedure: G6PDH activity was determined in vitro on human fibroblasts by the enzymatic method of Okada, while the DNA content was determined by the Desaulniers method. The results of 3 series of measurements with triple determination are given in %-rel. compared to a blank sample.

[6] = molecular target: pancreas elastase (Sus scrofa, UniProt P00772); experiment: Inhibition of elastase activity; assay type: biochemical; settings: 0.3% by weight; 30 minutes at room temperature; relative to control = 0%
Sequence of pancreas elastase (P00772 27-266): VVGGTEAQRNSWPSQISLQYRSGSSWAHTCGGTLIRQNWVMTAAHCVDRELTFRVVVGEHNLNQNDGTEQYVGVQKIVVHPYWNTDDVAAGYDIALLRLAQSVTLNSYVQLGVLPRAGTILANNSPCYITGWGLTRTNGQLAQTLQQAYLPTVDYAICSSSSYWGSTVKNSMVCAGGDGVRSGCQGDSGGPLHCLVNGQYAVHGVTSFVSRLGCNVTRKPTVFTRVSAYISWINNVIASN
Procedure: In order to determine the effectiveness of the plant extract in inhibiting the release of elastase, pancreas elastase (a serine protease) was studied and, as substrate, elastin was labeled with a chromogenic synthetic substrate. The system was incubated with the active ingredients for 30 minutes at room temperature and then, after centrifugation, the optical density of the dye at 410 nm was determined. The amount of extracts used was 0.3% by weight. The results are given relative to a control as standard (=0%); a1-antitrypsin was used as the standard.

[7] = Membran & Cell Biol. 12(1), p. 89-99 (1998); cited from earlier work
[8] = Biochem. J. 264(3), p. 863-869 (1989); cited from earlier work

For `C[N+](C)(C)C[C@H](O)CC(=O)O.[Cl-]` [Carnitine*HCl], which “G6PDH after 3 d” value [1] is on record?
Its value is 104 %-rel.

And the “G6PDH after 6 d” value [1]?
The value was 109 %-rel.

What about the “Content of DNA fragments” value [2] of the same molecule?
The value was 88%.

What about the Cell count [2] of the same molecule?
Its Cell count is 118%.

And the “Area 7 days” value [3]?
The value was 9.9 cm2.

And the “Area 14 days” value [3]?
Its value is 5.8 cm2.

What about the “Density 14 days” value [3] of the same molecule?
Its value is 0.25.

What about the “GAG content 7 days” value [3] of the same molecule?
The value was 11.8.

What about the “GAG content 14 days” value [3] of the same molecule?
Its value is 13.3.

What about the “Inhibition of the glycation of collagen” value [4] of the same molecule?
Its value is 65%.

What about the “DNA after 3 d” value [5] of the same molecule?
The value was 106 %-rel.

What about the “DNA after 6 d” value [5] of the same molecule?
The value was 118 %-rel.

What about the Elastase inhibition [6] of the same molecule?
The Elastase inhibition was 28%.

With `NCCC(=O)N[C@@H](Cc1cnc[nH]1)C(=O)O` [L-Carnosine] as the molecule, how does the “G6PDH after 3 d” value [1] read?
Its value is 105 %-rel.

And the “G6PDH after 6 d” value [1]?
The value was 109 %-rel.

And the “Content of DNA fragments” value [2]?
The value was 85%.

And the Cell count [2]?
Its Cell count is 129%.

And the “Area 7 days” value [3]?
Its value is 10.1 cm2.

And the “Area 14 days” value [3]?
The value was 6.0 cm2.

And the “Density 14 days” value [3]?
Its value is 0.25.

And the “GAG content 7 days” value [3]?
Its value is 12.1.

What about the “GAG content 14 days” value [3] of the same molecule?
The value was 15.1.

And the “Inhibition of the glycation of collagen” value [4]?
Its value is 68%.

What about the “DNA after 3 d” value [5] of the same molecule?
Its value is 111 %-rel.

What about the “DNA after 6 d” value [5] of the same molecule?
Its value is 120 %-rel.

And the Elastase inhibition [6]?
The Elastase inhibition was 32%.

What does the source list for `CCCCC(CC)COC(=O)C(C#N)=C(c1ccccc1)c1ccccc1` (centres unmarked) [Octocrinyl, reference compound]?
G6PDH after 3 d [1]: 89 %-rel.; G6PDH after 6 d [1]: 85 %-rel.; DNA after 3 d [5]: 95 %-rel.; DNA after 6 d [5]: 90 %-rel.

With `CCCCCCOC(=O)c1ccccc1C(=O)c1ccc(N(CC)CC)cc1O` [Uvinul A, 2-(4-diethylamino-2-hydroxybenzoyl)-benzoic acid hexyl ester, reference compound] as the molecule, how does the “G6PDH after 3 d” value [1] read?
The value was 88 %-rel.

And the “G6PDH after 6 d” value [1]?
The value was 81 %-rel.

And the “DNA after 3 d” value [5]?
Its value is 97 %-rel.

What about the “DNA after 6 d” value [5] of the same molecule?
The value was 93 %-rel.

For `NCCC(=O)N[C@@H](Cc1cnc[nH]1)C(=O)O` [carnosine], which “G6PDH activity (in words)” value [1] is on record?
The value was “increases the activity of G6PDH production”.

What about the “apoptosis and content of free DNA fragments in the cytoplasm (in words)” value ([2]; human cell cultures) of the same molecule?
The value was “counteracts apoptosis”.

And the “capture of alpha-beta-unsaturated aldehydes” value [7]?
Its value is “able to capture alpha-beta-unsaturated aldehydes”.

What about the “capture of ROS” value [8] of the same molecule?
Its value is “capable of capturing ROS”.
